In PMC3173463, “Discovery of Dual-Action Membrane-Anchored Modulators of Incretin Receptors” (PLoS ONE, 2011):
Where no end group is shown, it is not given here.

Assays:
GLP-1R = target: T1, GLP-1R (Homo sapiens, UniProt P43220); assay: CRE luciferase reporter gene assay, membrane-tethered ligand co-transfected with GLP-1R; type: cell-based; settings: CRE6X-LUC, relative to wild-type tethered construct; Figure 2A-B
T1 construct: expressed in transfected cells; host or cells: HEK293 cells, transient transfection, pcDNA1.1 plasmid
T1 sequence (P43220 24-463): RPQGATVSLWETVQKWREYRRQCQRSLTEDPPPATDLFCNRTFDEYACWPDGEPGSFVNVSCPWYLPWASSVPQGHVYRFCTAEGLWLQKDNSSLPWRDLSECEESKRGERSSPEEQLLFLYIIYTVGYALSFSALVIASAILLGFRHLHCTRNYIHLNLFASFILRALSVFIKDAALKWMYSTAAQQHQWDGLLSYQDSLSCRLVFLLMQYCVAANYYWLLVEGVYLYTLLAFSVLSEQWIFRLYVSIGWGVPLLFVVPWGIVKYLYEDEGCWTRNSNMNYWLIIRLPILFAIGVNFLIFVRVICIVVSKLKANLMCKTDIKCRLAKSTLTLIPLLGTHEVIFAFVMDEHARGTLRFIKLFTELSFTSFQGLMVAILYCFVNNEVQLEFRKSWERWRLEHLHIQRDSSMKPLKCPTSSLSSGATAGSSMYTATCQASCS
Protocol: Figure 2 Activity and selectivity of wild-type and G^7/K^7 derivatives of tGLP-1 and tEXE4. […] HEK 293 cells were transiently transfected with cDNAs encoding the GLP-1R or GIP-R, a tethered ligand, and a CRE6X-LUC reporter gene construct. Twenty four hours post-transfection, ligand-induced activity was quantified as described in Methods. […] Data represent the mean ± SEM from at least 4 independent experiments, each performed at least in quadruplicate.
Receptor-mediated signaling was assessed using a previously described luciferase assay, [18]. In brief, HEK293 cells were plated at a density of 3000–6000 cells per well into clear-bottom, white 96-well plates and grown for 1–2 days to ∼80% confluency. […] Following ligand stimulation, the medium was gently aspirated, the cells were lysed and luciferase activity was quantified using a TopCount NTX after addition of Steadylite^R reagent (PerkinElmer, Boston, MA). […] Substrate cleavage (an index of β-galactosidase expression was quantified by measurement of optical density at 420 nm using a SpectraMax^R microplate reader (Molecular Devices, Sunnyvale, CA). Corresponding values were used to normalize the luciferase data for transfection efficiency.

HA-tagged GIP-R = HA-tagged GIP-R cell surface expression by ELISA; type: cell-based, human; settings: HEK 293, HA-GIPR, ELISA 48 hours after transfection, soluble ligand added 24 h after transfection; Figure 4A
Protocol: The impact of soluble peptide (A), tethered ligands (B) and the interaction between soluble and tethered ligands on HA-GIPR surface expression (C) was measured by ELISA. HEK 293 cells were transfected with a plasmid encoding the HA-tagged GIP-R, with or without increasing amounts of a tethered ligand cDNA. Twenty four hours after transfection, soluble ligands were added in selected wells, as indicated. In each experiment, receptor expression was evaluated 48 hours after transfection. […] Data represent the mean ± SEM from at least 4 independent experiments, each performed in 12 replicates. The expression of HA-GIPR in the absence vs presence of soluble or tethered ligand were compared by analysis of variance followed by Dunnett's post-test; significance, *, p<0.05; **, p<0.01.
The surface expression levels of myc-tagged tethered ligands or HA-tagged GIP-Rs were assessed using a previously-established procedure [15], [18]. HEK293 cells grown in 96-well clear Primaria plates (BD Biosciences, Bedford, MA) were transiently transfected with either pcDNA1.1 or a cDNA encoding the relevant epitope-tagged proteins (tethered ligand and/or GIP-R). […] Light absorbance at 450 nm was quantified as a measure of protein expression) using a SpectraMax^R microplate reader.

GIP-R = target: T2, GIP-R (Homo sapiens, UniProt P48546); assay: CRE luciferase reporter gene assay, soluble ligands on GIP-R expressing cells; type: cell-based; settings: soluble peptides, 6 hours stimulation; Figure 3B
T2 construct: expressed in transfected cells; host or cells: HEK293 cells, transient transfection, pcDNA1.1 plasmid
T2 sequence (P48546 22-466): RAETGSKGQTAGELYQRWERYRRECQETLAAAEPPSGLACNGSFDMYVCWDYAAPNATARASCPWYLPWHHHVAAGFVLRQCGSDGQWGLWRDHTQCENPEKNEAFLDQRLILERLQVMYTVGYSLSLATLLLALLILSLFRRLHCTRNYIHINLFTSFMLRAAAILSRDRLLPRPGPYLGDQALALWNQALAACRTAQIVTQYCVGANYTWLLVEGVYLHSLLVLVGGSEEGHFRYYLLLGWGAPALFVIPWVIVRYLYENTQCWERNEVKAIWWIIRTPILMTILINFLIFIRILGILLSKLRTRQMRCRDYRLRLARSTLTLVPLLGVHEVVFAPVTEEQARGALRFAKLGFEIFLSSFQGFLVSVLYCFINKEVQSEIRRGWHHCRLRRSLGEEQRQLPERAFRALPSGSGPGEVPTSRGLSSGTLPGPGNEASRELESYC
Protocol: HEK293 cells were transiently transfected with cDNAs encoding the indicated receptor and a CRE6X-LUC reporter gene construct. Twenty four hours post-transfection, cells were stimulated for 6 hours with soluble peptides; ligand-induced activity was then quantified.
Receptor-mediated signaling was assessed using a previously described luciferase assay [15], [18]. In brief, HEK293 cells were plated at a density of 3000–6000 cells per well into clear-bottom, white 96-well plates and grown for 1–2 days to ∼80% confluency. Cells were then transiently transfected using Lipofectamine^R reagent (Invitrogen, Carlsbad, CA) with cDNAs encoding (i) a GPCR (or the empty expression vector), (ii) a tethered ligand (where applicable), (iii) the CRE6X-LUC reporter gene and (iv) β-galactosidase (as a control for transfection efficiency). For experiments investigating the agonist function of soluble peptides, tethered ligand cDNA was not included in the transfection reaction. Twenty four hours after transfection, cells were incubated with or without selected soluble peptide in serum-free medium for 6 hours. Following ligand stimulation, the medium was gently aspirated, the cells were lysed and luciferase activity was quantified using a TopCount NTX after addition of Steadylite^R reagent (PerkinElmer, Boston, MA).

GIPR-CHE = assay: Confocal microscopy of GIPR-CHE subcellular distribution; type: cell-based, human; settings: HEK 293, 18 hours treatment, Figure 5A
Protocol: The impact of selected soluble peptides (A) and tethered ligands (B) on the subcellular distribution of GIPR-CHE was studied using confocal microscopy. HEK 293 cells were transiently transfected with a plasmid encoding the GIPR-CHE, with or without cDNA encoding a GFP-tagged tethered ligand. Twenty-four hours later, the cells were treated for 18 hours with a soluble peptide or the corresponding vehicle, as indicated. The subcellular distribution of receptor was then visualized.
Cells were transfected with plasmids encoding GIPR-CHE and tEXE4-GFP or tGLP1-GFP. Twenty-four hours later, the cells were treated for 18 h with media containing 100 nM of soluble GIP, followed by confocal microscopy imaging.
HEK293 cells were plated at a density of 150,000 cells per dish onto poly-L-lysine coated 35 mm glass bottom dishes (MatTek Corporation, Ashland, MA) and grown for 1 day to ∼60–80% confluency. Cells were then transfected with cDNA encoding GIPR-CHE and a GFP-tagged tethered ligand construct. In some experiments, soluble peptides were added 24 hours after transfection and cells were incubated at 37°C for an additional 18–24 hours before imaging. Forty eight hours following transfection, the cells were washed once with PBS and fixed with 4% paraformaldehyde in PBS for 10 minutes. […]

agonist activity of soluble peptide at the GIP-R (GIP-R) | Substance | tethered ligand-induced activity at the GLP-1R (GLP-1R) | GIP-R surface expression after prolonged incubation with soluble ligand (HA-tagged GIP-R) | GIPR-CHE subcellular distribution after soluble peptide (GIPR-CHE)
 | [G^7]tGLP-1: membrane-tethered GLP-1 with glycine at position 7 (GAEGTFTSDVSSYLEGQAAKEFIAWLVKGRG; also: fused with epitope tag, linkers, membrane-anchoring sequence; UniProt P01275 98-128, looked up, variant H7G) | activity comparable to the corresponding unmodified ligands |  | 
even lower potency agonist | glucagon-like peptide-1 [GLP-1] |  | no effect | 
 | glucose-dependent insulinotropic polypeptide [GIP] |  | markedly reduced | massive GIPR-CHE endocytosis
